From US8679526B2, “Antimicrobial peroxidase compositions” (Flen Pharma N.V., priority 2005, dated 2014)
Values after ≈ are worked out from the molar mass of the structure shown.

Experiments:
[1] = system: S. aureus; assay: Antibacterial activity on S. aureus of oxidase/peroxidase with enhancing agents; type: cell-based, Staphylococcus aureus; conditions: for antibacterial activity of compositions with enhancing agent, substrate and enzyme: FIG. 2; for enhancing activity on glucose/peroxidase antibacterial activity: present experimental setting; for Enhancing effect on oxidase/peroxidase assay: antimicrobial effect; for bactericidal capacity when mixed with the enzyme-substrate solution / effect on cell survival of the separate systems: FIG. 1; for bactericidal capacity when mixed with the enzyme-substrate solution: enhancing agent and ES; for effect on cell survival of the separate systems: enhancing agent only
Procedure: Bacterial cells (S. aureus) were plated on Trypticase Soybean Agar plates (Becton Dickinson) and incubated overnight at 37° C. Cells were recovered from plates and mixed with NaCl-peptone broth buffer (Merck). The amount of medium is adjusted to give a bacterial suspension with a cell density of OD600=0.25 for bacteria.
For the examples described in the following examples, a fresh dilution of 0.25% (v/v) enzyme-substrate (Biovert™) stock solutions were prepared for each independent test. The Biovert™ enzyme stock solution contains 1527 U/ml lactoperoxidase; 2016 U/ml glucose oxidase; the Biovert™ substrate stock solution comprises: 55% (w/v) glucose, 0.51% (w/v) KSCN, 0.73% (w/v) KI.
In order to assess the synergistic action of the enhancing agent on the enzyme-substrate enhancing agent, the concentration of enzyme-substrate was adjusted to obtain conditions wherein the oxidase/peroxidase in a hydrogel performs limited but measurable antibacterial activity. The above mentioned (0.25% (v/v)) solution has accordingly been further diluted to 0.017% (v/v).
(§1) A 0.33% (w/v) Na-alginaat (Kelset), 0.66% (v/v) PEG400 gel solution was prepared in water, autoclaved and subsequently cooled to room temperature.
(§2) For the antibacterial assay the following components are mixed: 100 μl of bacterial cell suspension, 100 μl enzyme-substrate master solution (0.25%), 1 g (=1 ml) gel solution, 0.1-1 mg enhancing agent, 300 μl milliQ water. Final concentrations of the enzyme/substrate in the reaction mixture are 0.015 U/ml glucose oxidase, 0.011 U/ml lactoperoxidase, 0.00007% (w/v) potassium thiocyanate, 0.0001% (w/v) potassium iodide, 0.0076% glucose, and 0.066-0.66 mg/ml enhancing agent.

[2] = cited from earlier work
[3] = DPPH-radical bleaching assay; conditions: for Antioxidant properties: DPPH assay: 5 mMole/liter in 1-octanol; for potency as reducer / antioxidant efficiency: FIG. 4
Procedure: DPPH (1,1-DiPhenyl-2-PicrylHydrazyl) is a cell-permeable, stable free radical that acts as a hydrogen radical scavenger, and is used as a screening tool for detecting free radical scavenging activity of antioxidants. When a radical solution is brought into contact with an antioxidant, the radical-molecule is reduced and thereby looses its characteristic purple colour. This “bleaching” can be monitored by spectrophotometric analysis.
A DPPH-radical solution (15 mg/ml) was prepared freshly in 1-octanol (Sigma) and 900 μl aliquots were transferred to 2 ml spectrophotometer cuvettes. 100 μl of 50 mMole/liter solutions of enhancing agents (dissolved in 1-octanol) were added to the solution (final concentration of the enhancing agents is 5 mMole/liter). Spectrophotometric analysis of the samples was carried out within 5 minutes, in order to prevent quenching caused by free (e.g. air born) radicals.

[4] = Beta-carotene assay; conditions: for Antioxidant properties: Beta-carotene assay: 5 mMole/liter in 1-octanol; for antioxidant performance in the beta carotene bleaching assay: FIG. 3
Procedure: In this assay, the antioxidant activity of a component is assessed by its ability to prevent bleaching of a beta-carotene solution by radicals formed upon illumination.
A beta-carotene solution (20 mg/ml) was prepared freshly in 1-octanol (Sigma) and 900 μl aliquots were transferred to 2 ml spectrophotometer cuvettes. 100 μl of 50 mMole/liter solutions of enhancing agents of the invention (dissolved in 1-octanol) were added to the solution (final concentration of the enhancing agents is 5 mMole/liter). The solutions were illuminated for up to 5 hours and spectrophotometric analysis was carried out at indicated time points.

[5] = system: MRSA (methicillin resistant S. aureus) bacteria; assay: Antibacterial activity on MRSA of oxidase/peroxidase with enhancing agents; type: cell-based, Staphylococcus aureus; conditions: for enhancing effect on the peroxidase/oxidase activity / antibacterial effect of compound alone: FIG. 5; for enhancing effect on the peroxidase/oxidase activity: ES + enhancing agent; for antibacterial effect of compound alone: enhancing agent alone
Procedure: The effect of vanillin and guaiacol on the peroxidase/oxidase activity was assayed on MRSA (methicillin resistant S. aureus) bacteria using growth conditions and assay conditions as described in example 1.

[6] = system: E. coli; assay: Antibacterial activity on E. coli of enhancing agents and oxidase/peroxidase; type: cell-based, Escherichia coli; conditions: FIG. 7; 6 hours of incubation
Procedure: Experiments using the conditions described in Example 1 and 2 were performed with Gram-negative bacteria (E. coli).

[7] = system: MRSA (Methicillin-Resistant Staphylococcus aureus); assay: Growth retardation of MRSA in TS broth with enzyme/substrate system; type: cell-based; conditions: FIG. 8; 0.08% dilution of enzyme/substrate
Procedure: A bacterial cell culture (A600=0.02) was grown in Tryptic Soy (TS) broth (Difco™, Becton Dickinson) in the presence of a 0.08% dilution (suboptimal concentration) of the enzyme/substrate system described in example 1. […] (see FIG. 8). It is observed that this effect is maintained for a significant time period.

[8] = system: Candida albicans; assay: Growth retardation of Candida albicans in SD broth with enzyme/substrate system; type: cell-based; conditions: FIG. 9; 0.02% dilution of enzyme/substrate
Procedure: A yeast cell culture (A600=0.05) was grown in Sabouraud Dextrose (SD) broth (Difco™, Becton Dickinson) in the presence of a 0.02% dilution (suboptimal concentration) of the enzyme/substrate system described in example 1.

[9] = system: HaCat keratinocytes cells; assay: Cell toxicity (MTT) of oxidase/peroxidase alginate gel with guaiacol; type: cell-based; conditions: 200 μM guaiacol in gel, diluted 1 g in 9 ml, 24 hours; p=0.31
Procedure: (§3) HaCat keratinocytes cells and mouse 3T3 fibroblast cells were grown in the following growth medium: DMEM medium (high glucose; Sigma) supplemented with heat inactivated calf serum (10%) (Life Technologies), L-glutamine (4 mM) (Sigma) and Streptomycin/Penicillin (100 U) (Sigma). […] As a control an identical gel without guaiacol was prepared. One gram of the alginate gel was dissolved in 9 ml growth medium (diluted alginate gel). Cells were seeded at subconfluency. After overnight incubation at 37° C., 5% CO2, growth medium was replaced by diluted alginate gel and the cells were incubated at 37° C., 5% CO2 for another 24 hours. […] Cells were incubated in this MTT-medium for an additional 3 h. Cell viability and metabolism was assayed by determining the chromophoric conversion product of MMT at 570 nm.

[10] = system: mouse 3T3 fibroblast cells; assay: as above; type: cell-based; conditions: 200 μM guaiacol in gel, diluted 1 g in 9 ml, 24 hours; p=0.32
Procedure: as §3

[11] = Dispersion or dissolution in the hydrophilic gel setting; type: physicochemical; conditions: present experimental setting, hydrogel
Procedure: as §1, §2

Compound	Solubility in water [2] [µg/mL]	Enhancing effect on oxidase/peroxidase assay [1]	Antioxidant properties: DPPH assay [3]	Antioxidant properties: Beta-carotene assay [4]	also measured
O=Cc1ccc(O)c(O)c1 [3,4 dihydroxybenzaldehyde, reference compound]					antibacterial activity of compositions with enhancing agent, substrate and enzyme [1]: less pronounced
N[C@@H](Cc1c[nH]c2ccc(O)cc12)C(=O)O [5-hydroxy-tryptophane, reference compound]					enhancing activity on glucose/peroxidase antibacterial activity [1]: did not show an enhancing activity
COc1cc(C(C)=O)ccc1O [Apocynin, 1-(4-hydroxy-3-methoxy-phenyl)ethanone]	500 (≈ 3.01 mM)				
Cc1cc(C(C)(C)C)c(O)c(C(C)(C)C)c1 [BHT, di-tert-butylated hydroxytoluene, reference compound]		+	++	+++	potency as reducer / antioxidant efficiency [3]: less potent reducers than gallic acid and propyl gallate
CCOc1cc(C=O)ccc1O [Ethylvanillin, 3-ethoxy-4-hydroxy-benzaldehyde]		+			bactericidal capacity when mixed with the enzyme-substrate solution [1]: markedly enhanced the bactericidal capacity; effect on cell survival of the separate systems [1]: only moderately affected cell survival
O=C(O)c1cc(O)c(O)c(O)c1 [Gallic acid, reference compound]		+	+++	+++	antibacterial activity of compositions with enhancing agent, substrate and enzyme [1]: less pronounced
COc1ccccc1O [Guaiacol, 2-methoxyphenol]		+	+++	++	bactericidal capacity when mixed with the enzyme-substrate solution [1]: markedly enhanced the bactericidal capacity; effect on cell survival of the separate systems [1]: only moderately affected cell survival; potency as reducer / antioxidant efficiency [3]: nearly as efficient as gallic acid and propyl gallate; antioxidant performance in the beta carotene bleaching assay [4]: very effective; enhancing effect on the peroxidase/oxidase activity [5]: enhancing effect; antibacterial effect of compound alone [5]: limited effect; enhancing effect on peroxidase/oxidase activity ([5]; FIG. 6, different concentrations of guaiacol): significant enhancing effect; antibacterial effectiveness in combination with the enzyme-substrate [6]: more effective than enzyme-substrate alone; suppression of bacterial growth on addition to enzyme/substrate system [7]: additional suppression of the bacterial growth; suppression of fungal growth on addition to enzyme/substrate system [8]: additional suppression of the fungal growth; metabolic activity of cells (MTT), alginate hydrogel with versus without guaiacol [9]: no statistical difference; metabolic activity of cells (MTT), alginate hydrogel with versus without guaiacol [10]: no statistical difference
CCOc1ccccc1O [Guaiethol, 2-ethoxyphenol]	3100 (≈ 22.4 mM)	+	+++	++	potency as reducer / antioxidant efficiency [3]: nearly as efficient as gallic acid and propyl gallate; antioxidant performance in the beta carotene bleaching assay [4]: very effective
COc1ccc(C=O)cc1O [Isovanilline, 3-hydroxy-4-methoxy-benzaldehyde]	11000 (≈ 72.3 mM)	−	−	±	antibacterial activity of compositions with enhancing agent, substrate and enzyme [1]: less pronounced
COc1cc(O)ccc1O [Methoxyhydroquinone, 2-methoxybenzene-1,4-diol]	33000 (≈ 235 mM)				
CCCOC(=O)c1cc(O)c(O)c(O)c1 [Propylgallate, propyl gallate, reference compound]		±	+++	+++	antibacterial activity of compositions with enhancing agent, substrate and enzyme [1]: less pronounced
CCOc1cc(C=O)ccc1O [Quantrovanil, 3-ethoxy-4-hydroxy-benzaldehyde]	280 (≈ 1.68 mM)				
COc1cc(C(=O)O)ccc1O [Vanillic acid, 4-hydroxy-3-methoxy-benzoic acid]		+		±	
COc1cc(C=O)ccc1O [Vanillin, 4-hydroxy-3-methoxy-benzaldehyde]		+	−	−	bactericidal capacity when mixed with the enzyme-substrate solution [1]: markedly enhanced the bactericidal capacity; effect on cell survival of the separate systems [1]: only moderately affected cell survival; potency as reducer / antioxidant efficiency [3]: performed poorly; antioxidant performance in the beta carotene bleaching assay [4]: performed poorly; enhancing effect on the peroxidase/oxidase activity [5]: enhancing effect; antibacterial effect of compound alone [5]: limited effect; antibacterial effectiveness in combination with the enzyme-substrate [6]: more effective than enzyme-substrate alone; suppression of fungal growth on addition to enzyme/substrate system [8]: additional suppression of the fungal growth
COc1cccc(O)c1 [m-Guaiacol, 3-methoxyphenol]	500 (≈ 4.03 mM)				
COc1cccc(C=O)c1O [o-vanillin, 2-hydroxy-3-methoxy-benzaldehyde]	500 (≈ 3.29 mM)				
COc1cc(C=O)cc(OC)c1O [syringaldehyde]					dispersion or dissolution in hydrophilic media [11]: could not be properly dispersed or dissolved
N[C@@H](Cc1ccc(O)cc1)C(=O)O [tyrosine, reference compound]					enhancing activity on glucose/peroxidase antibacterial activity [1]: did not show an enhancing activity
Vitamin E [reference compound]		−	+	+	potency as reducer / antioxidant efficiency [3]: less potent reducers than gallic acid and propyl gallate
